Laboratory results: PubChem BioAssay AID1963863 (Molecular Pharmacology Branch, DTP, NCI, 2024)

Tested on: 931267-113-T-J1-PDC KRAS spheroid with HUVEC/MSC, viability
Assay: Anticancer human tumor 931267-113-T-J1-PDC patient-derived colon adenocarcinoma cell line growth inhibition [KRAS2]
Conditions: for IC50: curve of first compound; for viability, T/C: stronger effect = lower value
In short: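 KRAS-mutant tumor cells were grown as spheroids with HUVEC endothelial cells and human MSCs as stroma. Targeted agents were tested alone and with KRAS pathway inhibitors. Doses started at or near clinical Cmax, or 10 microM, descending half-log.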

[1] = second compound 0.0316 µM, first compound 0.0316 µM
[2] = second compound 0.0316 µM, first compound 0.1 µM
[3] = second compound 0.0316 µM, first compound 0.316 µM
[4] = second compound 0.0316 µM, first compound 1 µM
[5] = second compound 0.0316 µM, first compound 3.16 µM
[6] = second compound 0.0316 µM, first compound 10 µM
[7] = second compound 0.1 µM, first compound 0.0316 µM
[8] = second compound 0.1 µM, first compound 0.1 µM
[9] = second compound 0.1 µM, first compound 0.316 µM
[10] = second compound 0.1 µM, first compound 1 µM
[11] = second compound 0.1 µM, first compound 3.16 µM
[12] = second compound 0.1 µM, first compound 10 µM
[13] = second compound 0.316 µM, first compound 0.0316 µM
[14] = second compound 0.316 µM, first compound 0.1 µM
[15] = second compound 0.316 µM, first compound 0.316 µM
[16] = second compound 0.316 µM, first compound 1 µM
[17] = second compound 0.316 µM, first compound 3.16 µM
[18] = second compound 0.316 µM, first compound 10 µM
[19] = second compound 1 µM, first compound 0.0316 µM
[20] = second compound 1 µM, first compound 0.1 µM
[21] = second compound 1 µM, first compound 0.316 µM
[22] = second compound 1 µM, first compound 1 µM
[23] = second compound 1 µM, first compound 3.16 µM
[24] = second compound 1 µM, first compound 10 µM
[25] = second compound 3.16 µM, first compound 0.0316 µM
[26] = second compound 3.16 µM, first compound 0.1 µM
[27] = second compound 3.16 µM, first compound 0.316 µM
[28] = second compound 3.16 µM, first compound 1 µM
[29] = second compound 3.16 µM, first compound 3.16 µM
[30] = second compound 3.16 µM, first compound 10 µM
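Note: compound exposure lasted 7 days before the readout.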
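Throughout, for viability, T/C: 100% = DMSO vehicle control viability.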

Row | Compound | IC50 (second compound 0.0316 µM) | IC50 (second compound 0.1 µM) | IC50 (second compound 0.316 µM) | IC50 (second compound 1 µM) | IC50 (second compound 3.16 µM) | viability, T/C [1] | viability, T/C [2] | viability, T/C [3] | viability, T/C [4] | viability, T/C [5] | viability, T/C [6] | viability, T/C [7] | viability, T/C [8] | viability, T/C [9] | viability, T/C [10] | viability, T/C [11] | viability, T/C [12] | viability, T/C [13] | viability, T/C [14] | viability, T/C [15] | further results
1 | COc1cc(Nc2ncc3c(n2)-c2ccc(Cl)cc2C(c2c(F)cccc2OC)=NC3)ccc1C(=O)O + C=CC(=O)N1CCN(c2nc(OCC3CCCN3C)nc3c2CCN(c2cccc4cccc(C)c24)C3)CC1CC#N | > 10 µM | > 10 µM | > 10 µM | 5.04 µM | < 0.0316 µM | 87.9% | 89.5% | 93.8% | 75.6% | 95.8% | 68.1% | 106% | 89.7% | 85.6% | 88% | 68.6% | 58.3% | 93.5% | 91.8% | 91.7% | viability, T/C [16]: 55.6%; viability, T/C [17]: 70%; viability, T/C [18]: 63%; viability, T/C [19]: 92.6%; viability, T/C [20]: 60.3%; viability, T/C [21]: 66.4%; viability, T/C [22]: 64.1%; viability, T/C [23]: 66%; viability, T/C [24]: 31.8%; viability, T/C [25]: 0.22%; viability, T/C [26]: 0.29%; viability, T/C [27]: 0.25%; viability, T/C [28]: 0.3%; viability, T/C [29]: 0.17%; viability, T/C [30]: 0.23%
2 | COc1cc2nccc(Oc3ccc(NC(=O)C4(C(=O)Nc5ccc(F)cc5)CC4)cc3)c2cc1OC + C=CC(=O)N1CCN(c2nc(OCC3CCCN3C)nc3c2CCN(c2cccc4cccc(C)c24)C3)CC1CC#N | > 10 µM | > 10 µM | > 10 µM | 2.47 µM | < 0.0316 µM | 107% | 98.3% | 95.2% | 98.7% | 64.7% | 59.5% | 107% | 97.9% | 106% | 104% | 66.6% | 50.9% | 108% | 119% | 108% | viability, T/C [16]: 110%; viability, T/C [17]: 71.9%; viability, T/C [18]: 51.8%; viability, T/C [19]: 92.3%; viability, T/C [20]: 101%; viability, T/C [21]: 92.8%; viability, T/C [22]: 104%; viability, T/C [23]: 37%; viability, T/C [24]: 15.6%; viability, T/C [25]: 16.2%; viability, T/C [26]: 13.8%; viability, T/C [27]: 0.57%; viability, T/C [28]: 0.23%; viability, T/C [29]: 2.35%; viability, T/C [30]: 0.23%
3 | O=C(c1cc(Cc2n[nH]c(=O)c3ccccc23)ccc1F)N1CCN(C(=O)C2CC2)CC1 + C=CC(=O)N1CCN(c2nc(OCC3CCCN3C)nc3c2CCN(c2cccc4cccc(C)c24)C3)CC1CC#N | > 10 µM | > 10 µM | > 10 µM | > 10 µM | < 0.0316 µM | 91% | 91.8% | 90.8% | 109% | 113% | 103% | 84.7% | 99.4% | 81.3% | 79% | 73.9% | 84.7% | 84.6% | 96.5% | 87% | viability, T/C [16]: 69.3%; viability, T/C [17]: 76.1%; viability, T/C [18]: 72.5%; viability, T/C [19]: 72.2%; viability, T/C [20]: 79.3%; viability, T/C [21]: 87.2%; viability, T/C [22]: 69.4%; viability, T/C [23]: 80.2%; viability, T/C [24]: 62.5%; viability, T/C [25]: 0.28%; viability, T/C [26]: 0.21%; viability, T/C [27]: 0.3%; viability, T/C [28]: 0.29%; viability, T/C [29]: 0.28%; viability, T/C [30]: 0.43%
